This is an account of results in patent US12594292B2, “Antiviral prodrugs, intermediate-and long-acting formulations and methods” (priority 2022, dated 2026).

In data set [1] the test system is SARS-CoV-2 isolate USA-WA1/2020. Kind of data set: SARS-CoV-2 infection in Caco-2 cells, qRT-PCR (Example 7). Particulars: Severe acute respiratory syndrome coronavirus 2; Caco-2 cells, MOI 0.01, 48 hours. Type of data set: cell-based. For orientation: Quantitative PCR measures a nucleic acid by following its amplification.
Data set [2] is described as follows: in vitro. Conditions: human.
Data set [3] in a line: in vitro. Particulars: African green monkey.
Data set [4] has as its system SARS-CoV-2 isolate USA-WA1/2020. Put plainly: SARS-CoV-2 infection in PSC-human lung cells, qRT-PCR (Example 7). The format is cell-based. Particulars: Severe acute respiratory syndrome coronavirus 2; PSC-human lung cells, MOI 0.01, 48 hours.
Data set [5] is described as follows: in vitro. Conditions: human. The source holds these as a separate data set.
Data set [6] can be described thus: Seven day oral pharmacokinetics in Syrian hamsters. Type of data set: in vivo. Particulars: after oral administration of ODBG-P-RVn. As for the experimental part:
ODBG-P-RVn in 0.1M sodium carbonate/bicarbonate buffer, pH 9.0, was administered to Syrian Hamsters by oral gavage every 12 hours for seven days. ODBG-P-RVn was present as the sodium salt.
FIG. 4A and FIG. 4B depict the seven day oral pharmacokinetics in Syrian hamsters. Syrian hamsters were given vehicle or ODBG-P-RVn by oral gavage every 12 hours for 7 days. Groups of 3 animals received vehicle or drug at doses of 16.9 and 13.2 mg/kg. Animals were weighed daily and monitored for clinical signs.
Analytical Methods: ODBG-P-RVn: Hamster plasma samples (10 μL) containing ODBG-P-RVn and K2EDTA as the anticoagulant were added to polypropylene tubes containing water (100 μL), internal standard solution (10 μL; 1,000 ng/mL of ODE-P-RVn in ACN:DMF (1:1, v/v)), and 10 μL of ACN:DMF (1:1, v/v). The solutions were mixed, then acidified with phosphoric acid, 85% w/v:water (1:19, v/v; 10 μL), mixed, then diluted with 200 μL of IPA, mixed, then diluted with 500 μL of water, and mixed. The samples were extracted with a Sep-Pak® tC18 96-well solid phase extraction plate (25 mg; Waters, Milford, MA). Extraction occurred under positive pressure conditions using nitrogen. Samples were washed serially with 1 mL of water:acetonitrile:formic acid (475:25:0.5, v/v/v) and 0.4 mL of water:acetonitrile:formic acid (350:150:0.5, v/v/v) before being serially eluted with 100 μL and 150 μL of water:{acetonitrile:isopropyl alcohol (1:1, v/v)}:formic acid:ammonium formate:citric acid solution, 2% w/v (15:85:0.1:0.1:0.1, v/v/v/w/v). The citric acid solution was prepared as water:citric acid monohydrate (20:0.4, v/w). After elution, 100 μL of water was added to each sample. The ODBG-P-RVn extracts were analyzed using an Agilent 1200 HPLC system (Agilent, Santa Clara, CA) coupled to an API5500 mass analyzer (SCIEX, Foster City, CA). Analytes were chromatographically separated using a Dacapo DX-C18 MF column (100×2 mm, 2.5 μm; ImtaktUSA, Portland, OR) using a mobile phase system consisting of Mobile Phase A (water:formic acid:[water:ammonium formate:citric acid (25:5:0.5, v/w/w)](1.000:1:1, v/v/v) and Mobile Phase B (acetonitrile:isopropyl alcohol:formic acid:[water:ammonium formate:citric acid (25:5:0.5, v/w/w)](800:200:1:1, v/v/v/v). The total analytical run time was 4.5 minutes. The mobile phase was nebulized using heated nitrogen in a Turbo-V source/interface set to electrospray positive ionization mode. The ionized compounds were detected using multiple reaction monitoring with transitions m/z 788.4>229 (V2043) and 668.4>467.2 (V2041). This method is applicable for measuring ODBG-P-RVn concentrations ranging from 6.25 to 3,000 ng/mL using 10.0 μL of plasma for extraction. The peak areas of ODBG-P-RVn and RVn were acquired using Analyst v. 1.6.2 (SCIEX, Framingham, MA). The calibration curve was obtained by fitting the peak area ratios of the analyte/I.S. and the standard concentrations to a linear equation with 1/x2 weighting, using Analyst. The equation of the calibration curve was then used to interpolate the concentrations of the analyte in the samples using their peak area ratios. The peak areas used for the calculations were not rounded.
The solutions were mixed and centrifuged at 16,000 g for five minutes. […] The GS-441524 extracts were analyzed using an Acquity UPLC system (Waters, Milford, MA) coupled to a G2-S QTof mass analyzer (Waters, Milford, MA). […]

The nature of data set [7]: in vitro. Particulars: human. This is another data set of the same source.
Data set [8] in a line: CellTiter-Glo luminescent cell viability assay, Vero E6 (Example 3). Conditions: African green monkey. The format is cell-based. As for the experimental part:
CellTiter-glo luminescent cell viability assay: Approximately 10^4 Vero E6 cells per well were seeded in opaque walled 96 well cell culture plates and incubated overnight. Compounds or controls were added at the indicated concentrations. […] Viability was calculated compared to untreated controls and CC50 values were calculated using Prism 8.
Determination of Cytotoxicity: The 50% cytotoxic concentrations (CC50) were determined with Cell Titer Glo (Cat. #G7570, Promega, Madison, WI) according to the manufacturer's instructions. The calculated CC50 values are shown in the foregoing table.
Relative viability was measured by CellTiter-Glo luminescent cell viability assay, as depicted at FIG. 2.
On the technique in general: ATP-based viability assays read luminescence as a measure of living cells.

Data set [9] can be described thus: in vitro. Particulars: human. This is another data set of the same source.
For data set [10], the system named is Calu 3. Kind of data set: Antiviral evaluation of cyanobenzyl analogs, Calu 3. Type of data set: cell-based.
Data set [11] has as its system Huh7.5. Put plainly: Antiviral evaluation of cyanobenzyl analogs, Huh7.5. Type of data set: cell-based.
The subject of data set [12] is Calu 3. Kind of data set: Cytotoxicity of cyanobenzyl analogs, Calu 3.
Data set [13] relates to Huh7.5. Kind of data set: Cytotoxicity of cyanobenzyl analogs, Huh7.5.
Data set [14] in a line: in vitro. Particulars: human. The source holds these as a separate data set.
Data set [15] can be described thus: in vitro. Particulars: human. This is another data set of the same source.
The conditions of data set [16]: after intravenous infusion, reported; cited from earlier work.
A short description of data set [17]: in vitro. Conditions: human. The source holds these as a separate data set.
Protocol: Cells were infected with 229E for 2 hours followed by treatment with the indicated dose of the indicated drug for 72 hours. The relative CPE was determined by measuring cell viability using an MTT assay. depicts the cytotoxicity in MRC-5 cells incubated in the presence of the indicated drug at the indicated concentration for 72 hours, after which cell viability was measured by the CellTiter-Glo assay. Data points indicate the averages from 3 independent experiments performed in duplicate. Error bars represent the standard error mean (SEM).
A short description of data set [18]: Cell viability assay CellTiter-Glo, Caco-2 cells (Example 7). Conditions: human.
The nature of data set [19]: Cell viability assay CellTiter-Glo, Calu-3 cells (Example 7). Particulars: human.
Data set [20] is described as follows: Cellular cytotoxicity in Vero E6 cells, MTT assay (Example 2). Conditions: African green monkey. Type of data set: cell-based. Here is the method: Ten thousand Vero E6 cells were seeded in 100 microliters of culture medium in 96 well plates. The following day serial two-fold dilutions of antiviral compounds or the DMSO-containing vehicle were added to each well. The USA WA-01 strain of SARS CoV-2 was added to each well at a multiplicity of infection of 0.1 thirty minutes later. Cells were incubated for 48 hours, washed twice in PBS and lysed with TRIzol. RNA was extracted using Directzol micro RNA columns. RNA was made into cDNA and assayed for the SARS CoV-2 spike protein and for a housekeeping gene (RPLPO) RNA by qPCR. Data represents the average of duplicate wells. Cellular cytotoxicity was also measured in VERO E6 cells. […] Cytotoxicity (CC50) was assessed using a commercially available MTT assay.

For data set [21] the following is noted: reported, Siegel et al. 2017; cited from earlier work.
Data set [22] concerns SARS-CoV-2 isolate USA-WA1/2020. Put plainly: SARS-CoV-2 infection in Huh7.5 cells, qRT-PCR (Example 7). Type of data set: cell-based. Particulars: CC50/EC50, Huh7.5 cells.
The subject of the next data set is VERO E6 cells. Kind of data set: Generation of remdesivir triphosphate in Vero E6 cells (LC/MS/MS). The format is in vitro ADME. Conditions: 1 micromolar drug, up to 48 hours. As for the experimental part:
In this example, Vero E6 cells were plated in 6 well plates at about 3.4×10^5 cells per well in 2 mL of media (DMEM, 10% FBS).
Cells were then incubated at 37° C. for 24 hours. Media was then aspirated and replaced with 2 mL of control media (fresh Dulbecco's Modified Eagle's Medium (DMEM), 10% FBS) or 2 mL of media with drug at a concentration of 1 μM. Cell were incubated with the various drugs for 48 hours. The media was aspirated, the cells rinsed twice with phosphate-buffered saline (PBS), trypsinized for 5 minutes with 1 mL ATV, triturated and removed to a 15 mL centrifuge tube, rinsed with 1 mL PBS, which was also then removed to the 15 mL centrifuge tube, and the cells were triturated again. Cells were counted in a Reichert hemocytometer using two 10 μL samples, and the number of cells in each sample was determined.
Cells were centrifuged at 1200 rpm for 10 minutes, diluent aspirated and the pellet resuspended in 250 μL of methanol/distilled water (70/30) and analyzed by LC/MS/MS. The results, which are depicted at FIG. 3, were in picomoles/10^6 cells and were the average of two or three determinations.

In data set [23] the test system is SARS-CoV-2 isolate USA-WA1/2020. Put plainly: SARS-CoV-2 infection in Vero E6 cells, qRT-PCR (Example 7). The format is cell-based.
[24] abbreviates: Severe acute respiratory syndrome coronavirus 2, Vero C1008, Vero E6 cells, MOI 0.01, 48 hours.

Read-outs that look alike come from different tables or passages of the source.

For `N#C[C@@]1(c2ccc3c(N)ncnn23)O[C@H](CO)[C@@H](O)[C@H]1O` [RVn, 2-C-(4-aminopyrrolo[2,1-f][1,2,4]triazin-7-yl)-2,5-anhydro-D-altrononitrile, reference compound], the 90% effect concentration (EC90) – broadly, the point of the concentration-response curve where the effect stands at 90% – in [1] is 1.75 µM; in data set [4], 2.62 µM. The CC50 at 48.5 h (in “in vitro [2]”; in “in vitro [3]”; in “in vitro [5]”; in the data set “in vitro [7]”; in data set [8]; in the data set “in vitro [9]”) was over 100 µM each time. In data set [6], the “plasma levels of RVn versus EC90 for RVn in PSC lung cells and Vero E6 cells” value is reported as “less than the EC90”. Also, in [6], the “time of peak plasma levels of RVn, the nucleoside metabolite of ODBG-P-RVn” value was found to be 3 h.

As to `CCCCCCCCCCCCCCCCCCOC[C@H](COP(=O)(O)OC[C@H]1O[C@@](C#N)(c2ccc3c(N)ncnn23)[C@H](O)[C@@H]1O)OCc1cccc(C#N)c1` [OD(3-CN-Bn)G-P-RVn, 1-O-Octadecyl-2-O-(3-cyanobenzyl)-sn-glyceryl-phospho-RVn], the SI with Calu 3 [10] (Calu 3) was determined as 1810; with Huh7.5 [11] it was 2066. Further, the concentration giving a half-maximal response (EC50) (usually the concentration giving half of the maximal effect) in the data set with Calu 3 [10] (Calu 3, read-out: EC50) stood at 0.034 ± 0.007 µM; with Huh7.5 [11] (read-out: EC50) it was 0.024 ± 0.006 µM. Moreover, the EC90 was determined as 0.065 ± 0.036 µM in the data set on Calu 3 [10] (Calu 3, read-out: EC90) and 0.077 ± 0.017 µM in the data set on Huh7.5 [11] (read-out: EC90). For the same compound, the CC50 in the data set on Calu 3 [12] was 61.6 µM; in the data set with Huh7.5 [13], 49.6 µM.

For the compound `CCCCCCCCCCCCCCCCCCOC[C@H](COP(=O)(O)OC[C@H]1O[C@@](C#N)(c2ccc3c(N)ncnn23)[C@@H](O)C1O)OCc1ccccc1C#N` (some centres unmarked) [OD(2-CN-Bn)G-P-RVn, 1-O-Octadecyl-2-O-(2-cyanobenzyl)-sn-glyceryl-phospho-RVn], the SI is 909 in the data set on Calu 3 [10] (Calu 3) and over 980 in the data set with Huh7.5 [11]. Further, the concentration giving a half-maximal response (EC50) came out at 0.091 ± 0.025 µM in the data set on Calu 3 [10] (Calu-3) and 0.0102 ± 0.017 µM with Huh7.5 [11]. In addition, the EC90 with Calu 3 [10] (Calu-3) worked out at 0.186 ± 0.047 µM; in the data set with Huh7.5 [11] it was 0.281 ± 0.03 µM. The CC50 in “in vitro [14]” is 82.8 µM; in the data set “in vitro [15]”, over 100 µM.

`CCC(CC)COC(=O)[C@H](C)N[P@](=O)(OC[C@H]1O[C@@](C#N)(c2ccc3c(N)ncnn23)[C@H](O)[C@@H]1O)Oc1ccccc1` [RDV, Remdesivir, reference compound]: the “time persisting at virologically significant levels in plasma” value in data set [16] is reported as “less than 2 hours”. Also, the CC50 (in the data set “in vitro [17]”; in data set [20]) was over 50 µM throughout. Moreover, the CC50 at 48.5 h in data set [18] is over 100 µM; in data set [19], over 100 µM; in data set [8] (Vero E6 cells, Cell Titer Glo, 48.5 hours, read-out: CC50) it was over 100 µM. Moreover, in [21], the “T1/2 ex vivo in human plasma” value is 1.15 h. Also, the Selectivity in [22] amounted to 253; in [23] (CC50/EC50, Vero E6 cells), 89.4. Further, the “levels of remdesivir triphosphate (RVn-TP)” value in the data set on VERO E6 cells is recorded as “below the level of quantification”. The same compound showed a concentration for a half-maximal effect (EC50) in [23] (setting [24]) of 1.13 µM. For the same compound, the 90% effect concentration (EC90) in data set [23] (setting [24]) turned out to be 7.05 µM.
